{"source": "patent US20250388592A1", "about": "(REMYND N.V., priority 2022, published 2025)"}
{"tested_on": "M17_3TAU(P301L) cells", "assay": "TAU-induced cytotoxicity (LDH) in the neuroblastoma tauopathy model", "assay_type": "cell-based", "conditions": "Homo sapiens, 168 h, inhibition of TAU-induced toxicity, 7 days retinoic acid differentiation, LDH readout", "description": "A TAU expression plasmid was constructed by sub-cloning the cDNA encoding for human TAU-P301L protein, wherein proline at position 301 is substituted by a leucine residue, into mammalian expression vector pcDNA3.1 resulting in the plasmid pcDNA3.1-TAUP301L. Plasmids pcDNA3.1 and pcDNA3.1-TAU P301L were transfected into human neuroblastoma cells (BE-M17; ATCC No. CRL-2267™) using lipofectamine reagent and subsequently, independent clonal cell lines with the plasmids stably integrated into the genome were selected by antibiotic resistance selection (Geneticin (G418)), resulting in cell lines M17.pcDNA3 and M17_3TAUP301L. Expression of the TAUP301 L gene in the M17_3TAUP301 L cells was confirmed by Western blot analysis.\nDifferentiation of the cells with RA leads to phosphorylation and subsequent aggregation of TAU, inducing a tauopathy in these cells. Cytotoxicity of cells was measured by quantification of lactate dehydrogenase (LDH) levels. In dead cells LDH is leaked out of the cells into the medium due to a loss of plasma-membrane integrity.\nBriefly, 3 days preceding the experiment pre-cultures of M17.pcDNA3 and M17_3TAU(P301L) cells were prepared, starting from a stock culture, at a density of 50.000-100.000 cells/cm2 in detection medium (Optimem Reduced Serum without phenol red (Gibco, Cat. 31985-047) supplemented with 1% fetal calf serum (FCS), 1 mM sodium pyruvate, 1×non-essential amino acids (NEAA), 500 μg/ml G418 and 0.5×antibiotic/antimycotic (ABAM)). At the day of the experiment these precultures were diluted to ˜[…] in detection medium without FCS and 60 μL of this suspension is dispensed per well into a 96-well microtiter plate. After 3 hours of incubation at 37° C./5% C02 an equal volume of detection medium containing 2.5 μM RA was added and subsequently incubated for 7 days at 37° C./5% CO2. After 7 days, LDH activity was determined using the Promega Cytotox 96 Non-Radioactive cytotoxicity assay (Cat. G1780), according the manufacturer's instructions. Cytotoxicity is measured as the ratio of LDH increase in the supernatant divided by the LDH increase in the total cell suspension (sum of the LDH measured in cells and supernatant). Toxicity was determined after 7 days of differentiation with retinoic acid in M17_3TAU(P301 L) cells compared to M17.pcDNA3 cells.\nThe M17_3TAU(P301L) cell line makes it possible to assess the ability of novel compounds to inhibit TAU-induced cytotoxicity. […] Compounds were tested for their ability to hamper TAU-induced toxicity at different concentrations, ranging from low non-effective concentrations to high potent concentrations. Afterwards, the dose-dependent inhibition curve was used to calculate their EC50 (Table 3B).", "units": {"EC50": "nM"}}
{"smiles": "O=C(NCC1CCC(F)(F)CC1)N1CC2(CN(Cc3ccc(F)cn3)C2)C1", "note": "[Cpd B453]", "EC50": 83.6}
{"smiles": "O=C(CC1CCC(F)(F)CC1)N1CC2(CN(Cc3ccc(Cl)cc3F)C2)C1", "note": "[Cpd B106]", "EC50": "< 0.19"}
{"smiles": "Cc1cccnc1CN1CC2(C1)CN(C(=O)OC1CCC(F)(F)CC1)C2", "note": "[Cpd B139]", "EC50": 20.6}
{"smiles": "COc1ccc(CCCN2CC3(C2)CN(C(=O)Cc2ccc(Cl)cc2)C3)cc1", "note": "[Cpd B059, 2-(4-chlorophenyl)-1-(6-(3-(4-methoxyphenyl)propyl)-2,6-diazaspiro[3.3]heptan-2-yl)ethanone]", "EC50": 1.23}
{"smiles": "O=C(OCC1CCCC1)N1CC2(CN(Cc3ccc(F)cc3)C2)C1", "note": "[Cpd B131]", "EC50": 4.38}
{"smiles": "Cn1cc(Cl)c(CN2CC3(C2)CN(C(=O)CC2CCC(F)(F)CC2)C3)n1", "note": "[Cpd B120]", "EC50": 4.27}
{"smiles": "O=C(Cc1ccc(F)c(F)c1)N1CC2(CN(Cc3ccccc3)C2)C1", "note": "[Cpd B007, 1-(6-benzyl-2,6-diazaspiro[3.3]heptan-2-yl)-2-(3,4-difluorophenyl)ethanone]", "EC50": 4.16}
{"smiles": "COc1cccc(CN2CC3(C2)CN(C(=O)CCC2CCCC2)C3)c1", "note": "[Cpd B071]", "EC50": 2.96}
{"smiles": "FC(F)(F)c1ccc(CNC2CC3(C2)CC(Nc2nc(Cc4ccc(Cl)cc4)ns2)C3)cc1", "note": "(centres unmarked) [Cpd B304, N-(3-(4-chlorobenzyl)-1,2,4-thiadiazol-5-yl)-N′-(4-(trifluoromethyl)benzyl) spiro[3.3]heptane-2,6-diamine]", "EC50": 31.5}
{"smiles": "Cc1cnc(CN2CC3(C2)CN(C(=O)NCc2ccc(F)cc2)C3)s1", "note": "[Cpd B440]", "EC50": 260}
{"smiles": "Cn1ccnc1CN1CC2(C1)CN(C(=O)Cc1ccc(F)cc1)C2", "note": "[Cpd B020, 2-(4-Fluoro-phenyl)-1-[6-(1-methyl-1H-imidazol-2-ylmethyl)-2,6-diaza-spiro[3.3]hept-2-yl]-ethanone]", "EC50": 422}
{"smiles": "COc1cccc(CN2CC3(C2)CN(C(=O)COC2CCCCC2)C3)c1", "note": "[Cpd B070]", "EC50": 54}
{"smiles": "Cn1cc(Cl)c(CN2CC3(C2)CN(C(=O)NCC2CCC(F)(F)CC2)C3)n1", "note": "[Cpd B202]", "EC50": 14.1}
{"smiles": "Cc1cccc(CCN2CC3(C2)CN(C(=O)Cc2ccc(Cl)cc2)C3)n1", "note": "[Cpd B051, 2-(4-chlorophenyl)-1-(6-(2-(6-methylpyridin-2-yl)ethyl)-2,6-diazaspiro[3.3]heptan-2-yl)ethanone]", "EC50": 30.7}
{"smiles": "O=C(OC1CCC(F)(F)CC1)N1CC2(CN(Cc3c(F)cccc3C(F)(F)F)C2)C1", "note": "[Cpd B148]", "EC50": 396}
{"smiles": "O=C(NC12CC(F)(C1)C2)N1CC2(CN(Cc3ccc(F)cc3)C2)C1", "note": "[Cpd B190, 6-(4-fluorobenzyl)-N-(3-fluorobicyclo[1.1.1]pentan-1-yl)-2,6-diazaspiro[3.3]heptane-2-carboxamide]", "EC50": 491}
{"smiles": "COc1cccc(CN2CC3(C2)CN(C(=O)NC2CC(F)(F)C2)C3)c1", "note": "[Cpd B422]", "EC50": 978}
{"smiles": "Cn1ccc(CN2CC3(C2)CN(C(=O)CC2CCC(F)(F)CC2)C3)n1", "note": "[Cpd B462]", "EC50": 53.1}
{"smiles": "O=C(NC1CCC(F)(F)CC1)N1CC2(CN(Cc3ccccc3C(F)(F)F)C2)C1", "note": "[Cpd B207]", "EC50": 17.8}
{"smiles": "Cc1nc(CN2CC3(C2)CN(C(=O)Nc2cccc(C(F)(F)F)c2)C3)cs1", "note": "[Cpd B176]", "EC50": 73.4}
{"smiles": "COc1cccc(CN2CC3(C2)CN(C(=O)NCC2CCCCC2)C3)c1", "note": "[Cpd B184]", "EC50": 5.12}
{"smiles": "Cc1cccnc1CN1CC2(C1)CN(C(=O)c1cccc3cc[nH]c13)C2", "note": "[Cpd B086]", "EC50": 437}
{"smiles": "Cc1nc(CN2CC3(C2)CN(C(=O)NCC2CCC(F)(F)CC2)C3)cs1", "note": "[Cpd B194]", "EC50": 264}
{"smiles": "COc1cccc(CN2CC3(C2)CN(C(=O)NCc2ccc(F)cc2)C3)c1", "note": "[Cpd B181]", "EC50": 4.98}
{"smiles": "O=C(Nc1ccc(OC(F)F)cc1)N1CC2(CN(Cc3ccc(F)cc3)C2)C1", "note": "[Cpd B465]", "EC50": 38.1}
{"smiles": "Cc1cccnc1CN1CC2(C1)CN(C(=O)c1cc3ccccc3o1)C2", "note": "[Cpd B412]", "EC50": 2850}
{"smiles": "COC(=O)c1ccc(CN2CC3(C2)CN(C(=O)Cc2ccc(F)cc2)C3)cc1", "note": "[Cpd B014, 4-{6-[2-(4-Fluoro-phenyl)-acetyl]-2,6-diaza-spiro[3.3]hept-2-ylmethyl}-benzoic acid methyl ester]", "EC50": 0.92}
{"smiles": "COc1cccc(CN2CC3(C2)CN(C(=O)CC2CCC(F)(F)CC2)C3)c1", "note": "[Cpd B074]", "EC50": 3.61}
{"smiles": "COc1cccc(CN2CC3(C2)CN(C(=O)CC2CCCCC2)C3)c1", "note": "[Cpd B073]", "EC50": 5}
{"smiles": "Cn1ncc(CN2CC3(C2)CN(C(=O)OC2CCC(F)(F)CC2)C3)c1Cl", "note": "[Cpd B144]", "EC50": 86.5}
{"smiles": "Cn1cnc(CN2CC3(C2)CN(C(=O)NCC2CCC(F)(F)CC2)C3)c1Cl", "note": "[Cpd B447]", "EC50": 148}
{"smiles": "O=C(NCc1ccc(F)cc1)N1CC2(CN(Cc3ccc(F)cc3)C2)C1", "note": "[Cpd B188]", "EC50": 53}
{"smiles": "O=C(Cc1ccnc(Cl)c1)N1CC2(CN(Cc3ccc(F)cc3)C2)C1", "note": "[Cpd B442]", "EC50": 200}
{"smiles": "O=C(OCC1CCC(F)(F)CC1)N1CC2(CN(Cc3ncccc3F)C2)C1", "note": "[Cpd B162]", "EC50": 51.6}
{"smiles": "COc1ccc(CNC2CC3(C2)CC(Nc2nc(Cc4ccc(Cl)cc4)ns2)C3)cc1OC", "note": "(centres unmarked) [Cpd B317, N-(3-(4-chlorobenzyl)-1,2,4-thiadiazol-5-yl)-N′-(3,4-dimethoxybenzyl) spiro[3.3]heptane-2,6-diamine]", "EC50": 41}
{"smiles": "Cc1cccnc1CN1CC2(C1)CN(C(=O)CCC1CCCCC1)C2", "note": "[Cpd B081]", "EC50": 9.69}
{"smiles": "O=C(OCC1CCC(F)(F)CC1)N1CC2(CN(Cc3c(F)cccc3C(F)(F)F)C2)C1", "note": "[Cpd B448]", "EC50": 120}
{"smiles": "Cc1cccc(CNC2CC3(C2)CC(Nc2nc(Cc4ccc(Cl)cc4)ns2)C3)c1", "note": "(centres unmarked) [Cpd B324, N-(3-(4-chlorobenzyl)-1,2,4-thiadiazol-5-yl)-N′-(3-methylbenzyl) spiro[3.3]heptane-2,6-diamine]", "EC50": 2.6}
{"smiles": "O=C(Cc1ccc(Cl)cc1)N1CC2(CN(Cc3cccc(Cl)c3)C2)C1", "note": "[Cpd B033, 1-(6-(3-chlorobenzyl)-2,6-diazaspiro[3.3]heptan-2-yl)-2-(4-chlorophenyl)ethanone]", "EC50": 2.46}
{"smiles": "Cn1cc(Cl)c(CN2CC3(C2)CN(C(=O)OCC2CCC(F)(F)CC2)C3)n1", "note": "[Cpd B159]", "EC50": 2.29}
{"smiles": "O=C(Cc1ccc(Cl)cc1)N1CC2(CN(CCc3cccc(C(F)(F)F)c3)C2)C1", "note": "[Cpd B044, 2-(4-chlorophenyl)-1-(6-(3-(trifluoromethyl)phenethyl)-2,6-diazaspiro[3.3]heptan-2-yl)ethanone]", "EC50": 16.1}
{"smiles": "O=C(OC1CCC(F)(F)CC1)N1CC2(CN(Cc3ncccc3C(F)(F)F)C2)C1", "note": "[Cpd B155]", "EC50": 4.67}
{"smiles": "Cc1nc(CN2CC3(C2)CN(C(=O)Cc2ccccc2F)C3)cs1", "note": "[Cpd B424]", "EC50": 930}
{"smiles": "Cn1cc(CN2CC3(C2)CN(C(=O)CC2CCC(F)(F)CC2)C3)cn1", "note": "[Cpd B119]", "EC50": 46}
{"smiles": "Cc1c(Cl)c(CN2CC3(C2)CN(C(=O)NCC2CCC(F)(F)CC2)C3)nn1C", "note": "[Cpd B203]", "EC50": 15.5}
{"smiles": "Cc1ccc(CN2CC3(C2)CN(C(=O)NCc2ccc(F)cc2)C3)o1", "note": "[Cpd B191, N-(4-fluorobenzyl)-6-((2-methyl-furan-5-yl)methyl)-2,6-diazaspiro[3.3]heptane-2-carboxamide]", "EC50": 144}
{"smiles": "Cc1cccc(CCN2CC3(C2)CN(C(=O)Cc2ccc(F)cc2)C3)c1", "note": "[Cpd B028, 2-(4-Fluoro-phenyl)-1-[6-(2-m-tolyl-ethyl)-2,6-diaza-spiro[3.3]hept-2-yl]-ethanone]", "EC50": 12.9}
{"smiles": "Cc1cccnc1CN1CC2(C1)CN(C(=O)Cc1ccccc1F)C2", "note": "[Cpd B436]", "EC50": 389}
{"smiles": "O=S(=O)(Cc1ccc(C(F)(F)F)cc1)N1CC2(CN(Cc3ccc(F)cc3)C2)C1", "note": "[Cpd B216]", "EC50": 5.69}
{"smiles": "COc1cccc(CN2CC3(C2)CN(S(=O)(=O)c2ccc(C(F)(F)F)cc2)C3)c1", "note": "[Cpd B220]", "EC50": 33.9}
{"smiles": "Cc1c(Cl)c(CN2CC3(C2)CN(C(=O)CC2CCC(F)(F)CC2)C3)nn1C", "note": "[Cpd B121]", "EC50": 12.5}
{"smiles": "O=C(OCC1CCC(F)(F)CC1)N1CC2(CN(Cc3ncccc3C(F)(F)F)C2)C1", "note": "[Cpd B163]", "EC50": 3.67}
{"smiles": "O=C(Cc1ccc(F)cc1)NC1CC2(CC(NCc3ccccc3)C2)C1", "note": "(centres unmarked) [Cpd B066, N-(6-(benzylamino)spiro[3.3]heptan-2-yl)-2-(4-fluorophenyl)acetamide]", "EC50": 130}
{"smiles": "O=C(NCC1CCC(F)(F)CC1)N1CC2(CN(Cc3ncccc3F)C2)C1", "note": "[Cpd B199]", "EC50": 53.9}
{"smiles": "O=C(NC1CCC(F)(F)CC1)N1CC2(CN(Cc3ccc(C(F)(F)F)cc3)C2)C1", "note": "[Cpd B460]", "EC50": 63}
{"smiles": "Cc1ccccc1CN1CC2(C1)CN(C(=O)Cc1ccc(Cl)cc1)C2", "note": "[Cpd B006, 2-(4-chlorophenyl)-1-(6-(2-methylbenzyl)-2,6-diazaspiro[3.3]heptan-2-yl)ethanone]", "EC50": 2.91}
